Measurements reported in US20160244437A1, “SUBSTITUTED PHENYLALANINE DERIVATIVES” (BAYER PHARMA AKTIENGESELLSCHAFT, priority 2013, published 2016).
pIC50: −log10 of the molar value. Where a name gives a salt, the structure may show the parent alone.

Experiments:
human factor XIa = target: T1, human factor XIa (Homo sapiens, UniProt P03951); assay: Measurement of FXIa inhibition (fluorogenic peptide substrate Boc-Glu(OBzl)-Ala-Arg-AMC); format: biochemical; conditions: factor XIa from Kordia 0.45 nM, 15 min pre-incubation, 30 min at 22° C., fluorescence
T1 construct: purchased Kordia

human and animal plasma = assay: Determination of anticoagulatory activity: activated partial thromboplastin time (aPTT) in plasma; conditions: concentration of test substance which brings about a 1.5-fold extension of the aPTT; plasma in vitro, C.K. Prest kit
Outline: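 Citrated plasma (human, mouse, rat, rabbit, pig, dog) incubated with varying compound concentrations and cephalin/kaolin PTT reagent for 3 minutes at 37° C.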

T1 sequence (P03951 388-625 limits assumed): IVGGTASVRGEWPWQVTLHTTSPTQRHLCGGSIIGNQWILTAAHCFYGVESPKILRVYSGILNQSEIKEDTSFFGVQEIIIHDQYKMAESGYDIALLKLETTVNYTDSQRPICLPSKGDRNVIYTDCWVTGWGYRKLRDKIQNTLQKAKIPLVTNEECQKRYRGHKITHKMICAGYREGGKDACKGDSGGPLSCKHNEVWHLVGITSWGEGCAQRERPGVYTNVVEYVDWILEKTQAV
T1 sequence (P03951 19-387 partner limits assumed): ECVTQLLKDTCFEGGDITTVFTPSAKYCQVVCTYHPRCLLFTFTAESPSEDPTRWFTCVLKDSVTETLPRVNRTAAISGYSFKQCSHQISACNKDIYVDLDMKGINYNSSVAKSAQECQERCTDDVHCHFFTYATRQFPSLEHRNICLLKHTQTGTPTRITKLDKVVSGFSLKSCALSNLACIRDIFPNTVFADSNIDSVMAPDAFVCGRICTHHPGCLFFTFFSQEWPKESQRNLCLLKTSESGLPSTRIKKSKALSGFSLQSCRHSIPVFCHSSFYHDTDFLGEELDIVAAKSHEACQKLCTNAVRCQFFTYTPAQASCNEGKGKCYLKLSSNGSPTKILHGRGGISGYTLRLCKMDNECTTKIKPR

Row | SMILES | pIC50 (human factor XIa) | aPTT (human and animal plasma) [µmol/L]
1 | Cc1ccc(S(=O)(=O)N(C)C)cc1-c1cccc(C[C@H](NC(=O)[C@H]2CC[C@H](CN)CC2)C(=O)Nc2ccc3[nH]c(=O)[nH]c3c2)c1 [Example 44, trans-4-(Aminomethyl)-N-{(2S)-3-[5′-(dimethylsulphamoyl)-2′-methylbiphenyl-3-yl]-1-oxo-1-[(2-oxo-2,3-dihydro-1H-benzimidazol-5-yl)amino]propan-2-yl}cyclohexanecarboxamide hydrochloride] | 7.89 | 0.28
2 | Cc1cc(C(=O)NC2CCC(N(C)C)CC2)ccc1-c1cccc(C[C@H](NC(=O)[C@H]2CC[C@H](CN)CC2)C(=O)Nc2ccc(-c3nnn[nH]3)c(F)c2)c1 (stereo partly drawn) [Example 64, 3′-[(2S)-2-({[trans-4-(Aminomethyl)cyclohexyl]carbonyl}amino)-3-{[3-fluoro-4-(1H-tetrazol-5-yl)phenyl]amino}-3-oxopropyl]-N-[4-(dimethylamino)cyclohexyl]-2-methylbiphenyl-4-carboxamide hydrochloride] | 8.28 | 0.12
3 | Cc1ccc(S(=O)(=O)NCc2ccccc2)cc1-c1cccc(C[C@H](NC(=O)[C@H]2CC[C@H](CN)CC2)C(=O)Nc2ccc(-c3n[nH]c(=O)[nH]3)cc2)c1 [Example 13, trans-4-(Aminomethyl)-N-[(2S)-3-[5′-(benzylsulphamoyl)-2′-methylbiphenyl-3-yl]-1-oxo-1-{[4-(5-oxo-4,5-dihydro-1H-1,2,4-triazol-3-yl)phenyl]amino}propan-2-yl]cyclohexanecarboxamide hydrochloride] | 8.04 | 0.47
4 | COc1ccc(C[C@H](NC(=O)[C@H]2CC[C@H](CN)CC2)C(=O)Nc2ccc(-c3nn[nH]n3)cc2)cc1-c1ccc(C(=O)NC2CCNCC2)cc1C [Example 56, 5′-[(2S)-2-({[trans-4-(Aminomethyl)cyclohexyl]carbonyl}amino)-3-oxo-3-{[4-(2H-tetrazol-5-yl)phenyl]amino}propyl]-2′-methoxy-2-methyl-N-(piperidin-4-yl)biphenyl-4-carboxamide hydrochloride] | 7.82 | 0.28
5 | CN(C)CCCOc1ccc(-c2cccc(C[C@H](NC(=O)[C@H]3CC[C@H](CN)CC3)C(=O)Nc3ccc(-c4nnc(C(F)(F)F)[nH]4)cc3)c2)cn1 [Example 101, N-alpha-{[trans-4-(Aminomethyl)cyclohexyl]carbonyl}-3-{6-[3-(dimethylamino)propoxy]pyridin-3-yl}-N-{4-[3-(trifluoromethyl)-4H-1,2,4-triazol-5-yl]phenyl}-L-phenylalaninamide hydrochloride] | 7.85 | 0.43
6 | Cc1nc(N)ncc1-c1cccc(C[C@H](NC(=O)[C@H]2CC[C@H](CN)CC2)C(=O)Nc2ccc(-c3nnn[nH]3)cc2)c1 [Example 95, N-alpha-{[trans-4-(Aminomethyl)cyclohexyl]carbonyl}-3-(2-amino-4-methylpyrimidin-5-yl)-N-[4-(1H-tetrazol-5-yl)phenyl]-L-phenylalaninamide hydrochloride] | 8.27 | 0.24
7 | CN(C)CCCOc1ccc(-c2cccc(C[C@H](NC(=O)[C@H]3CC[C@H](CN)CC3)C(=O)Nc3ccc(-c4nc(C(F)(F)C(F)(F)C(=O)O)n[nH]4)cc3)c2)cn1 [Example 109, hydrochloride] | 8.22 | 0.16
8 | CN1CCN(C(=O)c2ccc(-c3cccc(C[C@H](NC(=O)[C@H]4CC[C@H](CN)CC4)C(=O)Nc4ccc(-c5nnn[nH]5)cc4)c3)cc2)CC1 [Example 46, trans-4-(Aminomethyl)-N-[(2S)-3-{4′-[(4-methylpiperazin-1-yl)carbonyl]biphenyl-3-yl}-1-oxo-1-{[4-(1H-tetrazol-5-yl)phenyl]amino}propan-2-yl]cyclohexanecarboxamide hydrochloride] | 8.10 | 0.32
9 | Cc1ccc(C[C@H](NC(=O)[C@H]2CC[C@H](CN)CC2)C(=O)Nc2ccc(-c3nnn[nH]3)cc2)cc1-c1cccc(C(=O)NC2CCN(C(C)C)CC2)c1 [Example 19, 5′-[(2S)-2-({[trans-4-(Aminomethyl)cyclohexyl]carbonyl}amino)-3-oxo-3-{[4-(1H-tetrazol-5-yl)phenyl]amino}propyl]-2′-methyl-N-[1-(propan-2-yl)piperidin-4-yl]biphenyl-3-carboxamide hydrochloride] | 8.22 | 0.14

Molecules with a higher pIC50 (human factor XIa), results first:

Row | pIC50 (human factor XIa) | SMILES | aPTT (human and animal plasma) [µmol/L]
10 | 8.72 | NC[C@H]1CC[C@H](C(=O)N[C@@H](Cc2cccc(-c3ccccc3S(=O)(=O)N3CCOCC3)c2)C(=O)Nc2ccc(-c3nn[nH]n3)cc2)CC1 [Example 54, trans-4-(Aminomethyl)-N-[(2S)-3-[2′-(morpholin-4-ylsulphonyl)biphenyl-3-yl]-1-oxo-1-{[4-(2H-tetrazol-5-yl)phenyl]amino}propan-2-yl]cyclohexanecarboxamide hydrochloride] | 0.28
11 | 8.62 | Cc1cnccc1-c1cccc(C[C@H](NC(=O)[C@H]2CC[C@H](CN)CC2)C(=O)Nc2ccc(-c3nnn[nH]3)cc2)c1 [Example 80, N-alpha-{[trans-4-(Aminomethyl)cyclohexyl]carbonyl}-3-(3-methylpyridin-4-yl)-N-[4-(1H-tetrazol-5-yl)phenyl]-L-phenylalaninamide hydrochloride] | 0.25
12 | 8.48 | Cc1nc(N)ccc1-c1cccc(C[C@H](NC(=O)[C@H]2CC[C@H](CN)CC2)C(=O)Nc2ccc(-c3nnn[nH]3)cc2)c1 [Example 66, N-alpha-{[trans-4-(Aminomethyl)cyclohexyl]carbonyl}-3-(6-amino-2-methylpyridin-3-yl)-N-[4-(1H-tetrazol-5-yl)phenyl]-L-phenylalaninamide hydrochloride] | 0.12
13 | 8.82 | Cc1ccc(S(=O)(=O)N(C)C)cc1-c1cccc(C[C@H](NC(=O)[C@H]2CC[C@H](CN)CC2)C(=O)Nc2ccc(-c3nnn[nH]3)cc2)c1 [Example 4, trans-4-(Aminomethyl)-N-[(2S)-3-[5′-(dimethylsulphamoyl)-2′-methylbiphenyl-3-yl]-1-oxo-1-{[4-(1H-tetrazol-5-yl)phenyl]amino}propan-2-yl]cyclohexanecarboxamide hydrochloride] | 0.21
14 | 8.39 | Cc1ccc(C[C@H](NC(=O)[C@H]2CC[C@H](CN)CC2)C(=O)Nc2ccc(-c3nnn[nH]3)cc2)cc1-c1cccc(C(=O)N2CCOCC2)c1 [Example 17, trans-4-(Aminomethyl)-N-[(2S)-3-[6-methyl-3′-(morpholin-4-ylcarbonyl)biphenyl-3-yl]-1-oxo-1-{[4-(1H-tetrazol-5-yl)phenyl]amino}propan-2-yl]cyclohexanecarboxamide hydrochloride] | 0.19
15 | 8.47 | NC[C@H]1CC[C@H](C(=O)N[C@@H](Cc2cccc(-c3cccc(S(N)(=O)=O)c3)c2)C(=O)Nc2ccc(-c3nnn[nH]3)cc2)CC1 [Example 5, trans-4-(Aminomethyl)-N-[(2S)-1-oxo-3-(3′-sulphamoylbiphenyl-3-yl)-1-{[4-(1H-tetrazol-5-yl)phenyl]amino}propan-2-yl]cyclohexanecarboxamide hydrochloride] | 0.23
